According to US20170349593A1, “BTK INHIBITORS” (MERCK SHARP & DOHME CORP., priority 2014, published 2017):

Assays:
[1] = molecular target: T1, BTK enzyme (recombinant full-length BTK, hBTK) (Homo sapiens, UniProt Q06187); assay: Btk enzyme activity assay (LANCE TR-FRET); assay type: biochemical; conditions: 50 pM hBTK, 25 μM ATP, 60 minute compound and enzyme incubation, concentration range 1 μM to 0.017 nM, read-out: BTK binding IC50
T1 construct: recombinant protein from baculovirus-transfected S 19 cells: full-length BTK, 6 HIS-tag cleaved; 6 HIS-tag (cleaved yes); made in house
T1 sequence (Q06187 whole entry): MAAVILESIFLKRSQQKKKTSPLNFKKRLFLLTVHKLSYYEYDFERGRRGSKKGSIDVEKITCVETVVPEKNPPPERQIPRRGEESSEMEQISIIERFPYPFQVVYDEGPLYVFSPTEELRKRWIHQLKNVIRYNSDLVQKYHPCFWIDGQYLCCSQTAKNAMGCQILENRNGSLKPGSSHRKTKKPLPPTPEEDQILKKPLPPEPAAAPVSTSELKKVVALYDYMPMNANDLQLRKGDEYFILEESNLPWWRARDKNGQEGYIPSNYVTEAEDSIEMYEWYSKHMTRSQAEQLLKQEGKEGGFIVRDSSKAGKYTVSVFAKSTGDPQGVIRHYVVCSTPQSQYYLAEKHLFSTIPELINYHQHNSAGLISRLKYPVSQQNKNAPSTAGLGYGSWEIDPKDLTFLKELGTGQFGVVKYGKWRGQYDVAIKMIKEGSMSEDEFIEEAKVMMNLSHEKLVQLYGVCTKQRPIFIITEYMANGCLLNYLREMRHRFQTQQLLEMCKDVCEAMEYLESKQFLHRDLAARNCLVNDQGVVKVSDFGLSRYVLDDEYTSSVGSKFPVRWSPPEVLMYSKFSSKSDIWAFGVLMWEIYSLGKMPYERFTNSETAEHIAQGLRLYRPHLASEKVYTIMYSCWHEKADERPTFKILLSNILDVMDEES

[2] = test system: adenosine uptake into HeLa cells; assay: [3H]Adenosine uptake assay; assay type: cell-based; conditions: Homo sapiens; accumulation of [3H]adenosine into HeLa cells; concentration range 10 μM to 0.032 nM; read-out: ADU inhibition IC50
Outline: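 HeLa cells (25 000/well), plated overnight, were preincubated 30 minutes at ambient temperature with compound in HBSS + 5% FBS. Ten-point titrations ran from 10 μM to 0.032 nM final. [3H]adenosine was added from a 500 nM solution for 60 minutes, and uptake was measured by scintillation proximity counting; IC50 came from a 4-parameter fit.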

Compound | IC50 [1] [nM] | IC50 [2] [nM]
COCC(=O)N1C[C@H](c2nc(-c3ccc(C(=O)Nc4cc(C(F)(F)F)ccn4)cc3)c3c(N)nccn23)OC[C@@H]1C [Example 78, 4-{8-amino-3-[(2R,5S)-4-(methoxyacetyl)-5-methylmorpholin-2-yl]imidazo[1,5-a]pyrazin-1-yl}-N-[4-(trifluoromethyl)pyridin-2-yl]benzamide] | 0.738 | 260
CO[C@H](C)C(=O)N1C[C@H](c2nc(-c3ccc(C(=O)Nc4cc(C(F)(F)F)ccn4)cc3F)c3c(N)nccn23)OC[C@@H]1C [Example 79, 4-(8-amino-3-{(2R,5S)-4-[(2R)-2-methoxypropanoyl]-5-methylmorpholin-2-yl}imidazo[1,5-a]pyrazin-1-yl)-3-fluoro-N-[4-(trifluoromethyl)pyridin-2-yl]benzamide] | 0.423 | 288
C[C@H](O)C(=O)N1C[C@H](c2nc(-c3ccc(C(=O)Nc4cc(C(F)(F)F)ccn4)cc3)c3c(N)nccn23)OC[C@@H]1C [Example 80, 4-(8-amino-3-{(2R,5S)-4-[(2S)-2-hydroxypropanoyl]-5-methylmorpholin-2-yl}imidazo[1,5-a]pyrazin-1-yl)-N-[4-(trifluoromethyl)pyridin-2-yl]benzamide] | 0.4 | 188
C[C@H]1CO[C@@H](c2nc(-c3ccc(C(=O)Nc4cc(C(F)(F)F)ccn4)cc3)c3c(N)nccn23)CN1C(=O)C1(C)CC1 [Example 81, 4-(8-amino-3-{(2R,5S)-5-methyl-4-[(1-methylcyclopropyl)carbonyl]morpholin-2-yl}imidazo[1,5-a]pyrazin-1-yl)-N-[4-(trifluoromethyl)pyridin-2-yl]benzamide] | 0.51 | 107
CC(C)C(=O)N1C[C@H](c2nc(-c3ccc(C(=O)Nc4cc(C(F)(F)F)ccn4)cc3)c3c(N)nccn23)OC[C@@H]1C [Example 82, 4-{8-amino-3-[(2R,5S)-5-methyl-4-(2-methylpropanoyl)morpholin-2-yl]imidazo[1,5-a]pyrazin-1-yl}-N-[4-(trifluoromethyl)pyridin-2-yl]benzamide] | 0.546 | 262
CC(=O)N1C[C@H](c2nc(-c3ccc(C(=O)Nc4cc(C(F)(F)F)ccn4)cc3)c3c(N)nccn23)OC[C@@H]1C [Example 83, 4-{3-[(2R,5S)-4-acetyl-5-methylmorpholin-2-yl]-8-aminoimidazo[1,5-a]pyrazin-1-yl}-N-[4-(trifluoromethyl)pyridin-2-yl]benzamide] | 0.363 | 188
C[C@H](O)C(=O)N1C[C@H](c2nc(-c3ccc(C(=O)Nc4cc(C(F)(F)F)ccn4)cc3F)c3c(N)nccn23)OC[C@@H]1C [Example 84, 4-(8-amino-3-{(2R,5S)-4-[(2S)-2-hydroxypropanoyl]-5-methylmorpholin-2-yl}imidazo[1,5-a]pyrazin-1-yl)-3-fluoro-N-[4-(trifluoromethyl)pyridin-2-yl]benzamide] | 0.368 | 360
C[C@H]1CO[C@@H](c2nc(-c3ccc(C(=O)Nc4cc(C(F)(F)F)ccn4)cc3F)c3c(N)nccn23)CN1C(=O)C1(C)CC1 [Example 85, 4-(8-amino-3-{(2R,5S)-5-methyl-4-[(1-methylcyclopropyl)carbonyl]morpholin-2-yl}imidazo[1,5-a]pyrazin-1-yl)-3-fluoro-N-[4-(trifluoromethyl)pyridin-2-yl]benzamide] | 0.548 | 189
CC(C)C(=O)N1C[C@H](c2nc(-c3ccc(C(=O)Nc4cc(C(F)(F)F)ccn4)cc3F)c3c(N)nccn23)OC[C@@H]1C [Example 87, 4-{8-amino-3-[(2R,5S)-5-methyl-4-(2-methylpropanoyl)morpholin-2-yl]imidazo[1,5-a]pyrazin-1-yl}-3-fluoro-N-[4-(trifluoromethyl)pyridin-2-yl]benzamide] | 0.738 | 141
CC(=O)N1C[C@H](c2nc(-c3ccc(C(=O)Nc4cc(C(F)(F)F)ccn4)cc3F)c3c(N)nccn23)OC[C@@H]1C [Example 88, 4-{3-[(2R,5S)-4-acetyl-5-methylmorpholin-2-yl]-8-aminoimidazo[1,5-a]pyrazin-1-yl}-3-fluoro-N-[4-(trifluoromethyl)pyridin-2-yl]benzamide] | 0.343 | 215
C[C@H]1CC[C@@H](c2nc(-c3ccc(C(=O)Nc4cc(C#N)ccn4)cc3)c3c(N)nccn23)CN1C(=O)C1CC1 [Example 89, 4-{8-amino-3-[(3R,6S)-1-(cyclopropylcarbonyl)-6-methylpiperidin-3-yl]imidazo[1,5-a]pyrazin-1-yl}-N-(4-cyanopyridin-2-yl)benzamide] | 0.297 | 47.5
C[C@H]1CC[C@@H](c2nc(-c3ccc(C(=O)Nc4cc(OC5CC5)ccn4)cc3)c3c(N)nccn23)CN1C(=O)N(C)C [Example 90, (2S,5R)-5-[8-amino-1-(4-{[4-(cyclopropyloxy)pyridin-2-yl]carbamoyl}phenyl)imidazo[1,5-a]pyrazin-3-yl]-N,N,2-trimethylpiperidine-1-carboxamide] | 0.448 | 14
C[C@H](O)C(=O)N1C[C@H](c2nc(-c3ccc(C(=O)Nc4cc(C5CC5)ccn4)cc3)c3c(N)nccn23)CC[C@@H]1C [Example 91, 4-(8-amino-3-{(3R,6S)-1-[(2S)-2-hydroxypropanoyl]-6-methylpiperidin-3-yl}imidazo[1,5-a]pyrazin-1-yl)-N-(4-cyclopropylpyridin-2-yl)benzamide] | 0.295 | 40.1
C[C@H]1CC[C@@H](c2nc(-c3ccc(C(=O)Nc4cc(C(F)F)ccn4)cc3)c3c(N)nccn23)CN1C(=O)N(C)C [Example 92, (2S,5R)-5-[8-amino-1-(4-{[4-(difluoromethyl)pyridin-2-yl]carbamoyl}phenyl)imidazo[1,5-a]pyrazin-3-yl]-N,N,2-trimethylpiperidine-1-carboxamide] | 0.215 | 22.4
C[C@H]1CC[C@@H](c2nc(-c3ccc(C(=O)Nc4cc(C(F)F)ccn4)cc3)c3c(N)nccn23)CN1C(=O)C1(O)CC1 [Example 93, 4-(8-amino-3-{(3R,6S)-1-[(1-hydroxycyclopropyl)carbonyl]-6-methylpiperidin-3-yl}imidazo[1,5-a]pyrazin-1-yl)-N-[4-(difluoromethyl)pyridin-2-yl]benzamide] | 0.248 | 37.1
C[C@H]1CC[C@@H](c2nc(-c3ccc(C(=O)Nc4cc(C(C)(F)F)ccn4)cc3)c3c(N)nccn23)CN1C(=O)CO [Example 95, 4-{8-amino-3-[(3R,6S)-1-(hydroxyacetyl)-6-methylpiperidin-3-yl]imidazo[1,5-a]pyrazin-1-yl}-N-[4-(1,1-difluoroethyl)pyridin-2-yl]benzamide] | 0.168 | 175
C[C@H]1CC[C@@H](c2nc(-c3ccc(C(=O)Nc4cc(C(C)(F)F)ccn4)cc3)c3c(N)nccn23)CN1C(=O)N(C)C [Example 96, (2S,5R)-5-[8-amino-1-(4-{[4-(1,1-difluoroethyl)pyridin-2-yl]carbamoyl}phenyl)imidazo[1,5-a]pyrazin-3-yl]-N,N,2-trimethylpiperidine-1-carboxamide] | 0.168 | 69.8
COCC(=O)N1C[C@H](c2nc(-c3ccc(C(=O)Nc4cc(C(C)(F)F)ccn4)cc3)c3c(N)nccn23)CC[C@@H]1C [Example 97, 4-{8-amino-3-[(3R,6S)-1-(methoxyacetyl)-6-methylpiperidin-3-yl]imidazo[1,5-a]pyrazin-1-yl}-N-[4-(1,1-difluoroethyl)pyridin-2-yl]benzamide] | 0.327 | 129
CCOc1cc(C(=O)Nc2cc(C(F)(F)F)ccn2)ccc1-c1nc([C@H]2CN(C(=O)[C@H](C)O)[C@@H](C)CO2)n2ccnc(N)c12 [Example 98, 4-(8-amino-3-{(2R,5S)-4-[(2S)-2-hydroxypropanoyl]-5-methylmorpholin-2-yl}imidazo[1,5-a]pyrazin-1-yl)-3-ethoxy-N-[4-(trifluoromethyl)pyridin-2-yl]benzamide] | 1.74 | 1610
CCOc1cc(C(=O)Nc2cc(C(F)(F)F)ccn2)ccc1-c1nc([C@H]2CN(C(=O)[C@H](C)O)[C@@H](C)CO2)n2c(CC)cnc(N)c12 [Example 99, 4-(8-amino-5-ethyl-3-{(2R,5S)-4-[(2S)-2-hydroxypropanoyl]-5-methylmorpholin-2-yl}imidazo[1,5-a]pyrazin-1-yl)-3-ethoxy-N-[4-(trifluoromethyl)pyridin-2-yl]benzamide] | 0.788 | 1990
C[C@H](O)C(=O)N1C[C@H](c2nc(-c3ccc(C(=O)Nc4cc(C(F)(F)F)ccn4)cc3Cl)c3c(N)ncc(Cl)n23)OC[C@@H]1C [Example 100, 4-(8-amino-5-chloro-3-{(2R,5S)-4-[(2S)-2-hydroxypropanoyl]-5-methylmorpholin-2-yl}imidazo[1,5-a]pyrazin-1-yl)-3-chloro-N-[4-(trifluoromethyl)pyridin-2-yl]benzamide] | 0.65 | 663
CCOc1cc(C(=O)Nc2cc(C(F)(F)F)ccn2)cc(F)c1-c1nc([C@H]2CN(C(=O)[C@H](C)O)[C@@H](C)CO2)n2c(Cl)cnc(N)c12 [Example 101, 4-(8-amino-5-chloro-3-{(2R,5S)-4-[(2S)-2-hydroxypropanoyl]-5-methylmorpholin-2-yl}imidazo[1,5-a]pyrazin-1-yl)-3-ethoxy-5-fluoro-N-[4-(trifluoromethyl)pyridin-2-yl]benzamide] | 0.665 | 2720
